Reference: patent US11298355B2 (Aerovate Therapeutics, Inc., priority 2019, dated 2022)

Test: Thermal stability and polymorphism of imatinib salts
Assay type: physicochemical
Details: imatinib salt forms
In the case of `O=S(=O)(O)CCO` [isethionate], the “thermal stability and polymorphic forms” value is reported as “suitable thermal stability and few or single polymorphic forms”.
In the case of malate, the “thermal stability and polymorphic forms” value is reported as “suitable thermal stability and few or single polymorphic forms”.
With malonate the “thermal stability and polymorphic forms” value was “suitable thermal stability and few or single polymorphic forms”.
With tartrate the “thermal stability and polymorphic forms” value was “suitable thermal stability and few or single polymorphic forms”.
